Converted amounts (≈) assume the structure as drawn. Like-named read-outs stand apart in the source and are kept apart here.
Assays:
HPAC = experiment: MTT proliferation assay, pancreatic HPAC; type: cell-based; settings: Homo sapiens, Table 2.2
PC3 = experiment: MTT proliferation assay, prostate PC3; type: cell-based; settings: Homo sapiens, PC-3
Protocol: (§1) An cultures were supplemented with 10% FCS (CSL, Australia), penicillin (100 U/ml), streptomycin ([…]), L-glutamine (2 mM) and sodium bicarbonate (1.2 g/L), and cultured at 37° C. in a humidified atmosphere of 5% CO2. All cell lines were purchased from ATCC (Maryland, USA) except where noted.
(§2) IC50 values were determined for each cell line. Cells were seeded in 96-well plates at an appropriate cell density as determined from growth kinetics analysis and cultured for 5 days in the absence and presence of the test compounds. Cell proliferation was assessed after the addition of 20 μl of 3-4,5 dimethylthiazol-2,5-diphenyl tetrazolium bromide (MTT, 2.5 mg/ml in PBS, Sigma) for 3-4 hrs at 37° C. according to manufacturer's instructions. IC50 values were calculated from semi-log plots of % of control proliferation on the y-axis against log dose on the x-axis.

[1] = Oral pharmacokinetics in female BALB/c mice; type: in vivo, mouse
Protocol: Compound No. 1 labelled above was prepared as homogenous suspensions in 1% CMC (m:v, water). The formulation was delivered orally by gavage to female BALB/c mice at a dosage of 50 mg/kg. Three animals were allocated to each timepoint (15 min, 30 min, 1 hr, 4 hr and 24 hr). At each respective timepoint, animals were euthanised by cervical dislocation and blood collected. The concentration of free compound was analysed by mass spectroscopy.

MDA-MB-468 = experiment: MTT proliferation assay, breast MDA-MB-468; type: cell-based; settings: Homo sapiens
cancer cell lines = experiment: Proliferation assays, panel of cancer cell lines; type: cell-based; settings: CP70, PC3, MDA-MB-468, HTB-138 and lung cancer cell lines
NCI-H23 = experiment: MTT proliferation assay, lung NCI-H23; type: cell-based; settings: Homo sapiens; Lung NCI-H23, Table 2.1; read-out: cytoxicity (IC50)
Protocol: as §1, §2

CCRF-CEM = experiment: MTT proliferation assay, leukaemia (ALL) CCRF-CEM; type: cell-based; settings: Homo sapiens, Table 2.2
Protocol: as §1, §2

NCI-H460 = experiment: MTT proliferation assay, NSC lung NCI-H460; type: cell-based; settings: Homo sapiens; NSC Lung NCI-H460, Table 2.2
Protocol: as §1, §2

CP70 = experiment: MTT proliferation assay, ovarian CP70; type: cell-based
HT-29 = experiment: MTT proliferation assay, colorectal HT-29; type: cell-based; settings: for IC50: Homo sapiens
Protocol: as §1, §2

[2] = system: murine macrophages (RAW 264.7) stimulated with LPS; experiment: Eicosanoid synthesis in LPS-stimulated RAW 264.7 macrophages; type: cell-based, mouse; settings: test compound 10 μM, LPS 50 ng/ml, 16 hrs; negative = inhibition
Protocol: The mouse macrophage cell line RAW 264.7 was cultured in DMEM supplemented with foetal calf serum (FCS), 2 mM glutamine and 50 U/ml penicillin/streptomycin. Subconfluent cells were detached from the flask by gentle scraping and 24-well plates seeded at 5×10^5 cells per well and allowed to adhere for 1 hr. Cells were then treated either test compound at a concentration of 10 μM (in 0.025% DMSO) or vehicle alone, and incubated for 1 hr. LPS 50 ng/ml (LPS—Sigma-Aldrich) was then added. After incubation for 16 hrs, culture media was collected and stored at −80° C. for ecosanoid measurements using enzyme immunometric assays (PGE2 and TXB2—Cayman Chemical).

MM200 = experiment: MTT proliferation assay, melanoma MM200; type: cell-based
RK (rabbit kidney) cells = experiment: Cytotoxicity (MTT proliferation assay) against rabbit kidney cells; type: cell-based
Protocol: (§3) The normal cell line NFF (neonatal foreskin fibroblasts) was a gift from Dr. Peter Parsons (Queensland Institute of Medical Research). RK (rabbit kidney) cells were obtained from Miller Whalley (Macquarie University). Both cell lines were cultured in RPMI supplemented with 10% FCS (CSL, Australia), penicillin (100 U/ml), streptomycin ([…]), L-glutamine (2 mM) and sodium bicarbonate (1.2 g/L), and cultured at 37° C. in a humidified atmosphere of 5% CO2
as §2

[3] = Preliminary formulation study, solubility in 20% HPBCD; type: physicochemical; settings: aqueous with cosolvent or surfactant or cyclodextrin, preliminary formulation studies
HTB-138 = experiment: MTT proliferation assay, glioma HTB-138; type: cell-based
Protocol: as §1, §2

[4] = system: NFF (neonatal foreskin fibroblasts); experiment: Cytotoxicity (MTT proliferation assay) against neonatal foreskin fibroblasts; type: cell-based, Human; settings: Homo sapiens, Fibroblast
Protocol: as §3, §2

## COc1ccc(C2c3ccc(O)c(C)c3OCC2c2ccc(O)cc2)cc1 (stereo not shown) [Compound 1, 3-(4-hydroxyphenyl)-4-(4-methoxyphenyl)-8-methyl-3,4-dihydro-2H-chromen-7-ol]
HPAC
  IC50: 51700 ± 8000 nM
PC3; Prostate PC3, Table 2.1, read-out: cytoxicity (IC50)
  IC50: 1700 ± 500 nM
PC3; Prostate PC3, Table 2.2, read-out: IC50
  IC50: 1600 ± 800 nM
[1]; female, BALB/c, mouse, faeces, po, 50 mg/kg, oral 50 mg/kg, Time 1 (head prints days), read-out: Faeces Free
  concentration at 1 h: 1060 ± 913 µM
[1]; female, BALB/c, mouse, faeces, po, 50 mg/kg, oral 50 mg/kg, Time 4 (head prints days), read-out: Faeces Free
  concentration at 4 h: 1790 ± 625 µM
[1]; female, BALB/c, mouse, faeces, po, 50 mg/kg, oral 50 mg/kg, Time 24 (head prints days), read-out: Faeces Free
  concentration at 24 h: 800 ± 670 µM
[1]; female, BALB/c, mouse, serum, 50 mg/kg, oral, sera, read-out: half life
  half-life: ~30 min
[1]; female, BALB/c, mouse, serum, po, 50 mg/kg, oral 50 mg/kg, Time 0.25 (head prints days), read-out: Serum Free
  concentration at 0.25 h: 27.3 ± 23 µM
[1]; female, BALB/c, mouse, serum, po, 50 mg/kg, oral 50 mg/kg, Time 0.5 (head prints days), read-out: Serum Free
  concentration at 0.5 h: 8.2 ± 6.5 µM
[1]; female, BALB/c, mouse, serum, po, 50 mg/kg, oral 50 mg/kg, Time 1 (head prints days), read-out: Serum Free
  concentration at 1 h: 2.4 ± 1.6 µM
[1]; female, BALB/c, mouse, serum, po, 50 mg/kg, oral 50 mg/kg, Time 4 (head prints days), read-out: Serum Free
  concentration at 4 h: 0.3 ± 0.02 µM
[1]; female, BALB/c, mouse, serum, po, 50 mg/kg, oral 50 mg/kg, Time 24 (head prints days), read-out: Serum Free
  concentration at 24 h: 0.05 ± 0.02 µM
[1]; female, BALB/c, mouse, serum, po, 50 mg/kg, oral, Time 0.25, Table 4, read-out: Free concentration, comparative oral pharmacokinetic data
  concentration at 0.25 h: 27.3 ± 23 µM
[1]; female, BALB/c, mouse, serum, po, 50 mg/kg, oral, Time 0.5, Table 4, read-out: Free concentration, comparative oral pharmacokinetic data
  concentration at 0.5 h: 8.2 ± 6.5 µM
[1]; female, BALB/c, mouse, serum, po, 50 mg/kg, oral, Time 1, Table 4, read-out: Free concentration, comparative oral pharmacokinetic data
  concentration at 1 h: 2.4 ± 1.6 µM
[1]; female, BALB/c, mouse, serum, po, 50 mg/kg, oral, Time 4, Table 4, read-out: Free concentration, comparative oral pharmacokinetic data
  concentration at 4 h: 0.33 ± 0.02 µM
[1]; female, BALB/c, mouse, serum, po, 50 mg/kg, oral, Time 24, Table 4, read-out: Free concentration, comparative oral pharmacokinetic data
  concentration at 24 h: 0.05 ± 0.02 µM
[1]; female, BALB/c, mouse, serum, po, 50 mg/kg, oral, after 30 min, read-out: free concentration in sera
  concentration at 30 min: 8.2 µM
[1]; female, BALB/c, mouse, serum, po, 50 mg/kg, oral, after 1 hr, read-out: free concentration in sera
  concentration at 1 hr: 2.4 µM
[1]; female, BALB/c, mouse, urine, po, 50 mg/kg, oral 50 mg/kg, Time 0.25 (head prints days), read-out: Urine Free
  concentration at 0.25 h: 17.1 ± 7.2 µM
[1]; female, BALB/c, mouse, urine, po, 50 mg/kg, oral 50 mg/kg, Time 0.5 (head prints days), read-out: Urine Free
  concentration at 0.5 h: 22.1 ± 1.5 µM
[1]; female, BALB/c, mouse, urine, po, 50 mg/kg, oral 50 mg/kg, Time 1 (head prints days), read-out: Urine Free
  concentration at 1 h: 26.3 ± 2.2 µM
[1]; female, BALB/c, mouse, urine, po, 50 mg/kg, oral 50 mg/kg, Time 4 (head prints days), read-out: Urine Free
  concentration at 4 h: 1.1 ± 0.1 µM
[1]; female, BALB/c, mouse, urine, po, 50 mg/kg, oral 50 mg/kg, Time 24 (head prints days), read-out: Urine Free
  concentration at 24 h: 0.1 ± 0.1 µM
[1]; oral
  share of compound recovered from faeces present in free form: ~100%
[1]; oral, 15 minutes post administration
  Cmax of free compound in sera: 27.3 µM
[1]; oral, after 15 and 30 min
  free concentration relative to phenoxodiol: 10-20 fold
[1]; oral, after 1 hr
  concentration relative to phenoxodiol: Approximately 2 fold
[1]; oral, at any time-point
  share present as the free entity in urine: ≤ 2%
MDA-MB-468; Breast MDA-MB-468, Table 2.1, read-out: cytoxicity (IC50)
  IC50: 600 ± 10 nM
MDA-MB-468; Breast MDA-MB-468, Table 2.2, read-out: IC50
  IC50: 1000 ± 600 nM
Cancer cell lines
  activity relative to phenoxodiol (IC50 comparison): 2-10 fold
NCI-H23
  IC50: 1900 ± 100 nM
CCRF-CEM
  IC50: 1600 ± 1200 nM
NCI-H460
  IC50: 1200 ± 450 nM
CP70; Ovarian CCP70, Table 2.1, read-out: cytoxicity (IC50)
  IC50: 1700 nM
CP70; Ovarian CP70, Table 2.2, read-out: IC50
  IC50: 1900 ± 400 nM
HT-29; Colorectal HT-29, Table 2.1, read-out: cytoxicity (IC50)
  IC50: 17400 nM
HT-29; Colorectal HT-29, Table 2.2, read-out: IC50
  IC50: 15700 ± 2400 nM
HT-29; colorectal cell line HT-29
  activity in words: moderately active
[2]
  Percentage change in PGE2 synthesis compared with vehicle: −53.8%
  Percentage change in TXB2 synthesis compared with vehicle: −15.9%
MM200; Melanoma MM200, Table 2.1, read-out: cytoxicity (IC50)
  IC50: 1000 ± 10 nM
MM200; Melanoma MM200, Table 2.2, read-out: IC50
  IC50: 780 ± 230 nM
RK (rabbit kidney) cells; Oryctolagus cuniculus, rabbit kidney cells
  IC50: > 60000 nM
RK (rabbit kidney) cells; Rabbit Kidney cells
  IC50: > 60000 nM
[3]
  solubility: 11.2 mg/mL (≈ 30.9 mM)
HTB-138; Glioma HTB-138, Table 2.1, read-out: cytoxicity (IC50)
  IC50: 1100 nM
HTB-138; Glioma HTB-138, Table 2.2, read-out: IC50
  IC50: 1160 nM
[4]; Neonatal Foreskin Fibroblasts (Human, NFF), read-out: IC50
  IC50: ~2000 nM
[4]; non-transformed neonatal foreskin fibroblasts, read-out: IC50
  IC50: 2000 nM
[4]; text says rabbit kidney cells, values are those of the NFF line of Table 1, read-out: degree of toxicity (IC50)
  IC50: 2000 nM

Reference: patent publication US9381186B2, “Substituted chroman derivatives, medicaments and use in therapy” (MEI Pharma, Inc., priority 2004, dated 2016)
